Experimental data: the supplement of paper PMC11451515

Test system: P12-Ichikawa
Experiment: cell viability relative to DMSO control; higher = less cytotoxic
Details: 48 h
Summary of the method: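 Viability was expressed as a per-plate percentage of DMSO wells, with cell-free wells as background. Leukemia cells (NOMO1 or SEM at 500 cells/well, P12-Ichikawa at 1000 cells/well) were adapted for at least four passages in each medium and seeded in 1536-well plates (5 μl). Library compounds in DMSO were pin-dosed over an 11-point threefold series from 47 μM to 0.79 nM, and CellTiter-Glo One luminescence was read after 48 h at 37°C.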

[1] = HPLM + 10% dialyzed FBS, 0.000781 µM
[2] = HPLM + 10% dialyzed FBS, 0.00234 µM
[3] = HPLM + 10% dialyzed FBS, 0.00702 µM
[4] = HPLM + 10% dialyzed FBS, 0.0211 µM
[5] = HPLM + 10% dialyzed FBS, 0.0632 µM
[6] = HPLM + 10% dialyzed FBS, 0.19 µM
[7] = HPLM + 10% dialyzed FBS, 0.569 µM
[8] = HPLM + 10% dialyzed FBS, 1.71 µM
[9] = HPLM + 10% dialyzed FBS, 5.12 µM
[10] = HPLM + 10% dialyzed FBS, 15.4 µM
[11] = HPLM + 10% dialyzed FBS, 46.1 µM
[12] = RPMI 5 mM glucose + 10% FBS, 0.000781 µM
[13] = RPMI 5 mM glucose + 10% FBS, 0.00234 µM
[14] = RPMI 5 mM glucose + 10% FBS, 0.00702 µM
[15] = RPMI 5 mM glucose + 10% FBS, 0.0211 µM
[16] = RPMI 5 mM glucose + 10% FBS, 0.0632 µM
[17] = RPMI 5 mM glucose + 10% FBS, 0.19 µM
[18] = RPMI 5 mM glucose + 10% FBS, 0.569 µM
[19] = RPMI 5 mM glucose + 10% FBS, 1.71 µM
[20] = RPMI 5 mM glucose + 10% FBS, 5.12 µM
[21] = RPMI 5 mM glucose + 10% FBS, 15.4 µM
[22] = RPMI 5 mM glucose + 10% FBS, 46.1 µM
[23] = RPMI 5 mM glucose + 10% dialyzed FBS, 0.000781 µM
[24] = RPMI 5 mM glucose + 10% dialyzed FBS, 0.00234 µM
[25] = RPMI 5 mM glucose + 10% dialyzed FBS, 0.00702 µM
[26] = RPMI 5 mM glucose + 10% dialyzed FBS, 0.0211 µM
[27] = RPMI 5 mM glucose + 10% dialyzed FBS, 0.0632 µM
[28] = RPMI 5 mM glucose + 10% dialyzed FBS, 0.19 µM
[29] = RPMI 5 mM glucose + 10% dialyzed FBS, 0.569 µM
[30] = RPMI 5 mM glucose + 10% dialyzed FBS, 1.71 µM
[31] = RPMI 5 mM glucose + 10% dialyzed FBS, 5.12 µM
[32] = RPMI 5 mM glucose + 10% dialyzed FBS, 15.4 µM
[33] = RPMI 5 mM glucose + 10% dialyzed FBS, 46.1 µM

## CN(C)c1ccc2cc(C(=O)N[C@@H](CCCNC(=N)CCl)C(=O)NCc3ccccc3)ccc2c1
[1]
  cell viability: 103%
[2]
  cell viability: 113%
[3]
  cell viability: 105%
[4]
  cell viability: 113%
[5]
  cell viability: 112%
[6]
  cell viability: 103%
[7]
  cell viability: 108%
[8]
  cell viability: 107%
[9]
  cell viability: 104%
[10]
  cell viability: 93.9%
[11]
  cell viability: 19%
[12]
  cell viability: 121%
[13]
  cell viability: 111%
[14]
  cell viability: 97.9%
[15]
  cell viability: 115%
[16]
  cell viability: 106%
[17]
  cell viability: 116%
[18]
  cell viability: 122%
[19]
  cell viability: 116%
[20]
  cell viability: 104%
[21]
  cell viability: 93%
[22]
  cell viability: 9.92%
[23]
  cell viability: 109%
[24]
  cell viability: 108%
[25]
  cell viability: 108%
[26]
  cell viability: 109%
[27]
  cell viability: 110%
[28]
  cell viability: 101%
[29]
  cell viability: 99.6%
[30]
  cell viability: 97.1%
[31]
  cell viability: 106%
[32]
  cell viability: 92%
[33]
  cell viability: 8.85%

## Cc1[nH]c(/C=C2\C(=O)Nc3ccc([S+](=O)([O-])Cc4c(Cl)cccc4Cl)cc32)c(C)c1C(=O)N1CCC[C@@H]1CN1CCCC1
[1]
  cell viability: 105%
[2]
  cell viability: 108%
[3]
  cell viability: 99.7%
[4]
  cell viability: 101%
[5]
  cell viability: 98.8%
[6]
  cell viability: 111%
[7]
  cell viability: 108%
[8]
  cell viability: 97.9%
[9]
  cell viability: 91.5%
[10]
  cell viability: 87.4%
[11]
  cell viability: 78.3%
[12]
  cell viability: 99.4%
[13]
  cell viability: 103%
[14]
  cell viability: 105%
[15]
  cell viability: 99.7%
[16]
  cell viability: 94.6%
[17]
  cell viability: 95.3%
[18]
  cell viability: 107%
[19]
  cell viability: 98.4%
[20]
  cell viability: 81.5%
[21]
  cell viability: 85.5%
[22]
  cell viability: 84.4%
[23]
  cell viability: 98%
[24]
  cell viability: 95.8%
[25]
  cell viability: 93.7%
[26]
  cell viability: 101%
[27]
  cell viability: 99%
[28]
  cell viability: 102%
[29]
  cell viability: 95%
[30]
  cell viability: 91.6%
[31]
  cell viability: 69.5%
[32]
  cell viability: 78.1%
[33]
  cell viability: 53%

## N\C1=N\C2=C(N=C[N]2COC(CO)CO)C(=O)N1
[1]
  cell viability: 107%
[2]
  cell viability: 108%
[3]
  cell viability: 109%
[4]
  cell viability: 113%
[5]
  cell viability: 115%
[6]
  cell viability: 115%
[7]
  cell viability: 119%
[8]
  cell viability: 120%
[9]
  cell viability: 119%
[10]
  cell viability: 116%
[11]
  cell viability: 5.18%
[12]
  cell viability: 104%
[13]
  cell viability: 102%
[14]
  cell viability: 112%
[15]
  cell viability: 119%
[16]
  cell viability: 121%
[17]
  cell viability: 110%
[18]
  cell viability: 124%
[19]
  cell viability: 124%
[20]
  cell viability: 117%
[21]
  cell viability: 107%
[22]
  cell viability: 3.39%
[23]
  cell viability: 101%
[24]
  cell viability: 98.3%
[25]
  cell viability: 108%
[26]
  cell viability: 118%
[27]
  cell viability: 106%
[28]
  cell viability: 116%
[29]
  cell viability: 113%
[30]
  cell viability: 109%
[31]
  cell viability: 112%
[32]
  cell viability: 109%
[33]
  cell viability: 4.18%

## CCN(C)C(=O)Oc1cccc([C@H](C)N(C)C)c1
[1]
  cell viability: 117%
[2]
  cell viability: 105%
[3]
  cell viability: 104%
[4]
  cell viability: 114%
[5]
  cell viability: 106%
[6]
  cell viability: 105%
[7]
  cell viability: 107%
[8]
  cell viability: 107%
[9]
  cell viability: 99.5%
[10]
  cell viability: 96.4%
[11]
  cell viability: 104%
[12]
  cell viability: 106%
[13]
  cell viability: 104%
[15]
  cell viability: 102%
[16]
  cell viability: 99.7%
[17]
  cell viability: 102%
[18]
  cell viability: 113%
[19]
  cell viability: 101%
[20]
  cell viability: 95.6%
[21]
  cell viability: 102%
[22]
  cell viability: 99.2%
[23]
  cell viability: 103%
[24]
  cell viability: 102%
[25]
  cell viability: 99.3%
[26]
  cell viability: 98.7%
[27]
  cell viability: 103%
[28]
  cell viability: 104%
[29]
  cell viability: 104%
[30]
  cell viability: 98.2%
[31]
  cell viability: 93.4%
[32]
  cell viability: 94.7%
[33]
  cell viability: 86.7%

## C[C@@H]1C[C@H]2[C@@H]3CC\C4=C\C(=O)\C=C/[C@]4(C)[C@@]3(Cl)[C@@H](O)C[C@]2(C)[C@@]1(OC(=O)C5=CC=CO5)C(=O)CCl
[1]
  cell viability: 98.5%
[2]
  cell viability: 93.7%
[3]
  cell viability: 71.9%
[4]
  cell viability: 66.9%
[5]
  cell viability: 64.6%
[6]
  cell viability: 64.7%
[7]
  cell viability: 60.8%
[8]
  cell viability: 61.6%
[9]
  cell viability: 57.9%
[10]
  cell viability: 40.9%
[11]
  cell viability: 50%
[12]
  cell viability: 99.2%
[13]
  cell viability: 97.7%
[14]
  cell viability: 65.4%
[15]
  cell viability: 54.6%
[16]
  cell viability: 52.1%
[17]
  cell viability: 49.3%
[18]
  cell viability: 53.7%
[19]
  cell viability: 51.3%
[20]
  cell viability: 41.6%
[21]
  cell viability: 32.6%
[22]
  cell viability: 40.2%
[23]
  cell viability: 93%
[24]
  cell viability: 84.6%
[25]
  cell viability: 59.1%
[26]
  cell viability: 50.6%
[27]
  cell viability: 44.1%
[28]
  cell viability: 46.2%
[29]
  cell viability: 40%
[30]
  cell viability: 41.2%
[31]
  cell viability: 35.8%
[32]
  cell viability: 30.2%
[33]
  cell viability: 30.7%

## NC(=O)Nc1cc(-c2ccc(CN3CCOCC3)cc2)sc1C(N)=O
[1]
  cell viability: 121%
[2]
  cell viability: 119%
[3]
  cell viability: 126%
[4]
  cell viability: 117%
[5]
  cell viability: 110%
[6]
  cell viability: 19.7%
[7]
  cell viability: 8.91%
[8]
  cell viability: 8.7%
[9]
  cell viability: 7.42%
[10]
  cell viability: 7.74%
[11]
  cell viability: 17.1%
[12]
  cell viability: 104%
[13]
  cell viability: 107%
[14]
  cell viability: 110%
[15]
  cell viability: 111%
[16]
  cell viability: 94.9%
[17]
  cell viability: 32.1%
[18]
  cell viability: 11.5%
[19]
  cell viability: 8.89%
[20]
  cell viability: 8.7%
[21]
  cell viability: 10%
[22]
  cell viability: 18.6%
[23]
  cell viability: 117%
[24]
  cell viability: 114%
[25]
  cell viability: 121%
[26]
  cell viability: 115%
[27]
  cell viability: 120%
[28]
  cell viability: 26.9%
[29]
  cell viability: 17.8%
[30]
  cell viability: 19.4%
[31]
  cell viability: 19%
[32]
  cell viability: 21.2%
[33]
  cell viability: 33.4%

## NCC(=O)Nc1ccc(-n2nc(C(F)(F)F)cc2-c2ccc3c(ccc4ccccc43)c2)cc1
[12]
  cell viability: 24.1%
[13]
  cell viability: 123%
[14]
  cell viability: 137%
[15]
  cell viability: 133%
[16]
  cell viability: 125%
[17]
  cell viability: 120%
[18]
  cell viability: 105%
[19]
  cell viability: 106%
[20]
  cell viability: 92.1%
[21]
  cell viability: 79.2%
[22]
  cell viability: 79%

## COc1ccc(Nc2cc(-c3cnc(N)nc3)nc(N3CCOCC3)n2)cn1
[1]
  cell viability: 98.7%
[2]
  cell viability: 101%
[3]
  cell viability: 98.4%
[4]
  cell viability: 102%
[5]
  cell viability: 103%
[6]
  cell viability: 94.9%
[7]
  cell viability: 96.7%
[8]
  cell viability: 89.9%
[9]
  cell viability: 63.7%
[10]
  cell viability: 71.1%
[11]
  cell viability: 71.9%
[12]
  cell viability: 89.9%
[13]
  cell viability: 90.9%
[14]
  cell viability: 93.9%
[15]
  cell viability: 90.7%
[16]
  cell viability: 100%
[17]
  cell viability: 87.7%
[18]
  cell viability: 89.5%
[19]
  cell viability: 79.3%
[20]
  cell viability: 52.2%
[21]
  cell viability: 54.1%
[22]
  cell viability: 56.6%
[23]
  cell viability: 93.7%
[24]
  cell viability: 90.4%
[25]
  cell viability: 95.8%
[26]
  cell viability: 98.7%
[27]
  cell viability: 102%
[28]
  cell viability: 98.6%
[29]
  cell viability: 86.3%
[30]
  cell viability: 88.1%
[31]
  cell viability: 50.4%
[32]
  cell viability: 54.1%
[33]
  cell viability: 51.7%
